Data published in PMC5454922, “Interaction of Biliverdin Chromophore with Near-Infrared Fluorescent Protein BphP1-FP Engineered from Bacterial Phytochrome” (International Journal of Molecular Sciences, 2017).

Columns and labels:
Format in all cases: binding
BphP1-FP [1] = target: T1, BphP1-FP (Rhodopseudomonas palustris, UniProt A0A161I5N6, C19S/I252C, form not given); test: zinc-induced fluorescence on SDS-PAGE; absorption and fluorescence spectroscopy; details: covalent, to Cys256 (GAF) only; otherwise same
T1 construct: engineered near-infrared fluorescent protein from PAS-GAF (CBD) of RpBphP1, lacks PHY and effector domains; N-terminal polyhistidine tag (pBAD/His-B); E. coli LMG194 with heme oxygenase; monomer, about 35 kDa

BphP1-FP [2] = target: T2, BphP1-FP (Rhodopseudomonas palustris, UniProt A0A161I5N6, I252C, form not given); test: as above; details: covalent, to Cys256 (GAF) and partly also Cys15 (PAS); co-expressed heme oxygenase supplies BV; 20 mM Tris/HCl pH 8.0, 1 mM TCEP
T2 construct: engineered near-infrared fluorescent protein from PAS-GAF (CBD) of RpBphP1, lacks PHY and effector domains; N-terminal polyhistidine tag (pBAD/His-B); E. coli LMG194 with heme oxygenase; monomer, about 35 kDa

BphP1-FP [3] = target: T3, BphP1-FP (Rhodopseudomonas palustris, UniProt A0A161I5N6, C19S, form not given); test: absorption and fluorescence spectroscopy of purified holoprotein; details: non-covalent (no reactive Cys); otherwise same
T3 construct: engineered near-infrared fluorescent protein from PAS-GAF (CBD) of RpBphP1, lacks PHY and effector domains; N-terminal polyhistidine tag (pBAD/His-B); E. coli LMG194 with heme oxygenase; monomer, about 35 kDa
T3 sequence (A0A161I5N6 1-314 C19S limits assumed): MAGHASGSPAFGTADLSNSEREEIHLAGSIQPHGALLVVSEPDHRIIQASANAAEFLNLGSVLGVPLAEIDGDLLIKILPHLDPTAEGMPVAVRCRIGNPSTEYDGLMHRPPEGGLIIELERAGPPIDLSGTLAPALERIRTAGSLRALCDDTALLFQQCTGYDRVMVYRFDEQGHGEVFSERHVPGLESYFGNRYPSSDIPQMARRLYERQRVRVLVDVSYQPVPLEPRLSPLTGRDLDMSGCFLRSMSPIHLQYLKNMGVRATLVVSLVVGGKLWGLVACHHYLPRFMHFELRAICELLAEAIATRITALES

T2 sequence (A0A161I5N6 1-314 I252C limits assumed): as the sequence (A0A161I5N6 1-314 C19S limits assumed) above, with S19C, I252C counted along it
T1 sequence (A0A161I5N6 1-314 C19S/I252C limits assumed): as the sequence (A0A161I5N6 1-314 C19S limits assumed) above, with I252C counted along it

C=CC1=C(C)C(=Cc2[nH]c(C=C3N=C(C=C4NC(=O)C(C)=C4C=C)C(C)=C3CCC(=O)O)c(CCC(=O)O)c2C)NC1=O [BV, biliverdin]
zinc-induced fluorescence on SDS-PAGE; absorption and fluorescence spectroscopy (BphP1-FP [1]): there was no non-covalently bound BV in BphP1-FP/C15S
zinc-induced fluorescence on SDS-PAGE; absorption and fluorescence spectroscopy (BphP1-FP [2]): The zinc-staining assay confirmed the covalent binding of the BV chromophore in BphP1-FP, BphP1-FP/C256I
absorption and fluorescence spectroscopy of purified holoprotein (BphP1-FP [3]): Absorption and fluorescence spectra of BphP1-FP/C15S/C256I mutant without Cys15 and Cys256 residues
